# Structures can show the parent of a compound that is named as a salt.
# Assays:
# [1] = target: T1, cloned human 5-HT2C receptor (Homo sapiens, UniProt P28335); assay: Human 5-HT2C receptor binding assay; details: [3H]mesulergine (1 nM) displacement, CHO-K1 cell membranes; read-out: 5-HT2C pKi (converted)
# T1 construct: purchased Euroscreen; host or cells: CHO-K1
# T1 sequence (P28335 33-458): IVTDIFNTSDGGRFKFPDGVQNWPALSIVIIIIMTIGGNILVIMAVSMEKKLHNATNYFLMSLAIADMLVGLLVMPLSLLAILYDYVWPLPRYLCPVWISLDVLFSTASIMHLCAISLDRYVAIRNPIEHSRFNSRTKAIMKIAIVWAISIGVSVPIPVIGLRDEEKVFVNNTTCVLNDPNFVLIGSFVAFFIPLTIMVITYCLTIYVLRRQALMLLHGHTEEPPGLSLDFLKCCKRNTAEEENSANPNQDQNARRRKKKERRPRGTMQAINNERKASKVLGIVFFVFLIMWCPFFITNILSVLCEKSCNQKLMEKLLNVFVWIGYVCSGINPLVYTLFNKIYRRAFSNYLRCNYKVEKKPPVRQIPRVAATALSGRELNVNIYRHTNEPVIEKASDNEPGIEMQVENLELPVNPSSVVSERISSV
# Procedure: (§1) The binding affinity of ligands for human 5-HT2A and 5-HT2C receptors was determined using the following assay.
# Membrane preparations from CHO-K1 cells expressing the cloned human 5-HT2C receptor were obtained (Euroscreen). The membranes were thawed rapidly and diluted in assay buffer containing Tris-HCl (50 mM, pH 7.7), ascorbic acid (0.1%) and pargyline (10 μM). The membranes were resuspended by homogenisation, prior to adding 6 μg of membranes to assay wells containing [^3H]mesulergine (1 nM), assay buffer (50 mM Tris at pH 7.7 and 0.1% ascorbic acid) containing pargyline (10 μM), and test compounds (1×10^−10 to 1×10^−4M). Non specific binding was determined in the presence of 100 μM mianserin. After 30 minutes incubation at 37° C., the assay mixture was filtered through a combination of GF-C and GF-B filters, pre-soaked in 1% bovine serum albumin, using a Brandel cell harvester, and were washed three times using ice cold Tris-HCl buffer (50 mM). Radioactivity retained on the filters was determined by liquid scintillation counting. For each test compound, the concentration that inhibited binding of [^3H]mesulergine by 50% was determined using curve fitting software (Prism). Kd values (concentration of mesulergine required to occupy 50% of the receptor binding sites at equilibrium) determined from saturation binding studies were then used to calculate inhibition dissociation constants (Ki) using the following equation: […]
# [2] = target: T2, human cloned 5-HT2B receptors (Homo sapiens, UniProt P41595); assay: Human cloned 5-HT2B receptor binding assay; details: [3H]LSD (1 nM) displacement, membranes of CHO-K1 cells expressing cloned 5-HT2B receptor; read-out: 5-HT2B pKi (converted)
# T2 construct: expressed in transfected cells; host or cells: CHO-K1
# T2 sequence (P41595 whole entry): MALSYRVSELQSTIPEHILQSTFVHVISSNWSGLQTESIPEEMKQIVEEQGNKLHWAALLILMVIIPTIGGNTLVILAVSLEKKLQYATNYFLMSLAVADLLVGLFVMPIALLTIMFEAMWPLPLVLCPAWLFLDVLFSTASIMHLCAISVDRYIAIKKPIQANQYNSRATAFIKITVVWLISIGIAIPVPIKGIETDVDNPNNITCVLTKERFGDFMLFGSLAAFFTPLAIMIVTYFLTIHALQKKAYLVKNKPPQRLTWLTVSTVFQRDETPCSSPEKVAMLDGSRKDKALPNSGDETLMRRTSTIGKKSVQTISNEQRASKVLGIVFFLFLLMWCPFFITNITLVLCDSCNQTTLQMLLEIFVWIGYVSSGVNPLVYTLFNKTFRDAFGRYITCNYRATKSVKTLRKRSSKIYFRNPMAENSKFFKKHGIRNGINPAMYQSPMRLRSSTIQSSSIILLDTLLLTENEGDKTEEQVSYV
# Procedure: The binding affinity of the compounds for human cloned 5-HT2B receptors was determined using the following assay.
# CHO-K1 cells expressing cloned 5-HT2B receptor were maintained in Ultra-CHO medium containing 400 μg/ml of G418, 100 U/ml penicillin, 100 μg/ml streptomycin, 2.5 μg/ml fungizone and 1-foetal bovine serum, in 95/5% O2/CO2 at 37° C. The cells were harvested using 0.25% trypsin and were centrifuged at 800 rpm for 8 minutes. The cells were homogenised in 50 mM HEPES buffer containing 1 mM disodium EDTA and 1 mM PMSF at pH 7.4, using a Dounce homogeniser (20 strokes). The homogenate was centrifuged at 2280 rpm (1000 g) and 4° C. for 10 minutes, after which the supernatant was removed by decanting. The pellet was re-homogenised as above, and the resulting supernatant removed and combined with that already obtained. The supernatant solution was then centrifuged at 18300 rpm (40000 g) for 10 minutes at 4° C. using a Sorvall centrifuge. The supernatant was removed, and the pellet was re-suspended in 50 mM buffer at pH 7.4 using a Ultra-turrax T25 Polytron, before centrifugation again at 40000 g as above. This wash procedure was repeated, after which the membrane preparation was stored at a concentration of 1 mg/ml at −80° C. until use.
# The membranes were thawed rapidly and diluted in assay buffer containing Tris-HCl (50 mM, pH 7.4), ascorbic acid (0.1°) and calcium chloride (4 mM). The membranes were homogenised to resuspend them, prior to adding 10 or 15 μg of membranes to assay wells containing [^3H]LSD (1 nM), assay buffer (50 mM Tris, 4 mM calcium chloride and 0.1° ascorbic acid) containing pargyline (10 μM), and the test compounds (1×10^−10 to 1×10^−4M). Non specific binding was determined in the presence of 100 μM 5-HT. After 30 minutes incubation at 37° C., the assay mixture was filtered through a combination of GF-C and GF-B filters, pre-soaked in 1% polyethyleneimine, using a Brandel cell harvester, and were washed three times using 50 mM Tris-HCl. Radioactivity retained on the filters was determined by liquid scintillation counting. For each test compound, the concentration that inhibited binding of [^3H]LSD by 50% was determined using curve fitting software (Prism). Kd values (concentration of LSD required to occupy 50% of the receptor binding sites at equilibrium) determined from saturation binding studies were then used to calculate inhibition dissociation constants (Ki) using the following equation: […]
# This approach follows that set out in Kenakin, T. P. Pharmacologic analysis of drug-receptor interaction. Raven Press, New York, 2nd Edition.
# [3] = target: T3, cloned human 5-HT2A receptor (Homo sapiens, UniProt P28223); assay: Human 5-HT2A receptor binding assay; details: [3H]ketanserin (1 nM) displacement, CHO-K1 cell membranes; read-out: 5-HT2A pKi (converted)
# T3 construct: purchased Euroscreen; host or cells: CHO-K1
# T3 sequence (P28223 whole entry): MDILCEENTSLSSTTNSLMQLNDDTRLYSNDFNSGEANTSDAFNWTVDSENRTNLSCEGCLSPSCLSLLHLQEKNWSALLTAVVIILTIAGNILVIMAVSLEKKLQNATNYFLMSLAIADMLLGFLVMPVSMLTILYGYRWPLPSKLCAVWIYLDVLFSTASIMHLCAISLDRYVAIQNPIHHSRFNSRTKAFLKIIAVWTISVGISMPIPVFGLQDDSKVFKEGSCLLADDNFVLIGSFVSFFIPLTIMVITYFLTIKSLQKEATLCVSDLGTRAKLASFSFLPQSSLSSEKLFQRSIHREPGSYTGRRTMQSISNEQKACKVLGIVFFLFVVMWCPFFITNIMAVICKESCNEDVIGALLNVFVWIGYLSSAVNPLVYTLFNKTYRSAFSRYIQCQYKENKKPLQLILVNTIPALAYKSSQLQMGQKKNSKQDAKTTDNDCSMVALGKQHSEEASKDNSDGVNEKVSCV
# Procedure: as §1
# Membrane preparations from CHO-K1 cells expressing the cloned human 5-HT2A receptor were obtained (Euroscreen). The membranes were thawed rapidly and diluted in assay buffer containing Tris-HCl (50 mM, pH 7.7). The membranes were resuspended by homogenisation, prior to adding 15 μg of membranes to assay wells containing [3H]ketanserin (1 nM), assay buffer (50 mM Tris at pH 7.4) containing pargyline (10 μM), and test compounds (1×10^−10 to 1×10^−4M). Non specific binding was determined in the presence of 100 μM mianserin. After 15 minutes incubation at 37° C., the assay mixture was filtered through a combination of GF-C and GF-B filters, pre-soaked in 0.05% Brij, using a Brandel cell harvester, and were washed three times using ice cold Tris-HCl buffer (50 mM). Radioactivity retained on the filters was determined by liquid scintillation counting. For each test compound, the concentration that inhibited binding of [^3H]ketanserin by 50% was determined using curve fitting software (Prism). Kd values (concentration of ketanserin required to occupy 50% of the receptor binding sites at equilibrium) determined from saturation binding studies were then used to calculate inhibition dissociation constants (Ki) using the following equation: […]
SMILES,Ki [1] [nM],Ki [2] [nM],Ki [3] [nM]
"Cc1cc(C)cc(-c2cccc(-c3cnc(N)o3)c2)c1 [Compound 209K, 5-(3′,5′-Dimethyl-biphenyl-3-yl)-oxazol-2-ylamine, trifluoroacetic acid]",> 1000,< 1000,> 1000
"CC(=O)Nc1nc(-c2cccc3ccccc23)c(C)[nH]1 [Compound 103I, N-(5-Methyl-4-naphthalen-1-yl-1H-imidazol-2-yl)-acetamide]",> 1000,< 100,> 1000
"CCOc1ccc2ccccc2c1-c1c[nH]c(N)n1 [Compound 104A, 4-(2-Ethoxy-naphthalen-1-yl)-1H-imidazol-2-ylamine]",> 100,< 1000,> 1000
"Cc1nc(N)oc1-c1cccc(-c2ccccc2)c1 [Compound 219A, 5-biphenyl-3-yl-4-methyl-oxazol-2-ylamine, trifluoroacetic acid]",> 1000,< 316,> 1000
"COc1ccccc1-c1cccc(Nc2cc(C)nc(N)n2)c1 [Compound 10F, N^4-(2′-methoxy-biphenyl-3-yl)-6-methyl-pyrimidine-2,4-diamine trifluoroacetic acid]",> 100,< 100,> 316
"Nc1nccc(Nc2ccc(I)cc2)n1 [Compound 16, N″-(4-Iodo-phenyl)-pyrimidine-2,4-diamine]",> 1000,< 1000,> 1000
"COc1c(-c2cnc(NC(C)=O)[nH]2)ccc2ccccc12 [Compound 103E, N-[4-(1-Methoxy-naphthalen-2-yl)-1H-imidazol-2-yl]-acetamide]",> 1000,< 100,> 10000
"Cc1cc(Nc2ccc(Br)cc2)nc(N)n1 [Compound 2F, N^4-(4-bromo-phenyl)-6-methyl-pyrimidine-2,4-diamine hydrochloride]",> 10000,< 1000,> 10000
"COc1ccccc1-c1cccc(Nc2nc(N)nn2C)c1 [Compound 406B, N^5-(2′-methoxy-biphenyl-3-yl)-1-methyl-1H-[1,2,4]triazole-3,5-diamine]",> 1000,< 316,> 1000
"Cc1cc(Nc2ccc(C)c(Br)c2)nc(N)n1 [Compound 2S, N^4-(3-bromo-4-methyl-phenyl)-6-methyl-pyrimidine-2,4-diamine hydrochloride]",> 316,< 100,> 1000
"Cc1cccc(-c2cccc(Nc3cc(C)nc(N)n3)c2)c1 [Compound 10E, 6-methyl-N^4-(3′-methyl-biphenyl-3-yl)-pyrimidine-2,4-diamine trifluoroacetic acid]",> 100,< 100,> 100
"Cc1cc(Nc2cc(Br)ccc2O)nc(N)n1 [Compound 2O, 2-(2-amino-6-methyl-pyrimidin-4-ylamino)-4-bromo-phenol hydrochloride]",> 100,< 1000,> 1000
"CC(C)c1cccc(-c2cccc(-c3cnc(N)o3)c2)c1 [Compound 209M, 5-(3′-Isopropyl-biphenyl-3-yl)-oxazol-2-ylamine, trifluoroacetic acid]",,< 1000,
"Cc1cc(Nc2cccc(-c3cccc(O)c3)c2)nc(N)n1 [Compound 10G, 3′-(2-amino-6-methyl-pyrimidin-4-ylamino)-biphenyl-3-ol trifluoroacetic acid]",,< 100,
"Cc1cccc(-c2cccc(-c3nc(N)oc3C)c2)c1 [Compound 218B, 5-Methyl-4-(3′-methyl-biphenyl-3-yl)-oxazol-2-ylamine, trifluoroacetic acid]",,< 1000,
"CC(=O)Nc1nc(-c2cccc(-c3ccccc3)c2)c[nH]1 [Compound 107, N-(4-biphenyl-3-yl-1H-imidazol-2-yl)-acetamide]",,< 1000,
"Cc1cc(Nc2ccc(C)c(I)c2)nc(N)n1 [Compound 2AK, N^4-(3-iodo-4-methyl-phenyl)-6-methyl-pyrimidine-2,4-diamine trifluoroacetic acid]",,< 100,

# Reference: US20090018150A1, “5-Ht2b Receptor Antagonists” (ASTERAND UK LIMITED, priority 2003, published 2009)
